Source: patent US8425968B2, “Beverage preservative system containing pimaricin-cyclodextrin complex” (PepsiCo., Inc., priority 2009, dated 2013)
In brackets after ≈: the same amount, converted by molar mass.

Experiments:
bio-indicator mold [1] = details: reported by the manufacturer of DMDC; cited from earlier work
physchem = assay type: physicochemical
[2] = test system: Penicillium glabrum ATCC 48441; experiment: 16 week mold spore challenge MIC in beverage; assay type: cell-based; details: ATCC48441, pH 3.4, read-out: 16 week incubation MIC (ppm)
Excerpt: (§1) A 2% fruit juice based non-carbonated beverage of pH 3.4 and about 12 Brix was formed by combining the following ingredients.
(§2) The preparation of beverage was divided into two aliquots.
(§3) Each of 24 such preparations was then divided equally across 8 separate tubes making for 192 samples. […] The tubes were sealed in a manner that prohibits moisture evaporation.
(§4) The mold spores employed were obtained from the following organisms. Aspgergillus niger isolate of Pepsi; ATCC strain 90900 (Talaromyces spectabilis), ATCC strain 48441 (Pencillium galbrum), ATCC 24088 (Byssochlamys fulva), ATCC 96468 (Neosartorva fischeri) ATCC strain 96463 (Talaromyces flavus) and ATCC strain ATCC 10512 (Talaromyces flavus var. flavus). Each spore type was present at 20 spores per milliliter.

[3] = test system: Talaromyces spectabilis ATCC 90900; experiment: 16 week mold spore challenge MIC in beverage; assay type: cell-based; details: Paecilomyces variotii, ATCC90900, pH 3.4; read-out: 16 week incubation MIC (ppm)
Excerpt: as §1, §2, §3, §4

[4] = test system: Aspergillus (Pepsi Isolate); experiment: 16 week mold spore challenge MIC in beverage; assay type: cell-based, Aspergillus niger; details: pH 3.4, read-out: 16 week incubation MIC (ppm)
Excerpt: as §1, §2, §3, §4

[5] = purportedly; cited from earlier work
bio-indicator mold [6] = experiment: Preservation of beverage for 16 weeks against the array of bio-indicator / spoilage organisms; assay type: cell-based
Excerpt: As used herein, the terms “preserve,” “preservative,” and “preservation” refer to a food or beverage product protected against or a composition able to stop or completely prevent spoilage of a product that is the result of the growth of spoilage microorganisms for a period of at least 16 weeks. This period is in keeping with the time required to transport a beverage product from location of manufacture, through distribution channels, into the hand of the consumer. Absence of spoilage is noted by absence any evidence of growth of spoilage organisms (turbidity, viable count, direct microscopic count or other standard methods of enumeration) and by the absence of any discernable change in the product attributes that could be routinely attributed to metabolism of spoilage organisms.
as §3
(§5) The second aliquot of beverage is identical to the 1st aliquot except for the presence of cyclodextrin-pimaricin complex. […] Each of 36 such preparations was then divided equally across 8 separate tubes making for 288 samples. […] The tubes were sealed in a manner that prohibits moisture evaporation.
An apple juice based beverage was prepared to contain 30 ppm EDTA (0.003%) as shown below. The beverage was divided into two aliquots. […]

[7] = test system: Byssochlamys fulva ATCC 24088; experiment: 16 week mold spore challenge MIC in beverage; assay type: cell-based; details: Paecilomyces fulvus, ATCC 10099 / ATCC 24088, pH 3.4; read-out: 16 week incubation MIC (ppm)
Excerpt: as §2, §3, §4, §5
(§6) The mold spores employed were obtained from the following organisms Paecilomyces puntoni (Pepsi isolate D3), ATCC 36614 (Byssochlamys nieva) ATCC 24088 (Byssochlamys fulva), ATCC 96468 (Neosartorya fischeri) ATCC strain 96463 (Talaromyces flavus) and ATCC strain ATCC 10512 (Talaromyces flavus var. flavus). Each spore type was present initially at 20 spores per milliliter of product. Spores for Byssochlamys nieva were developed at both 25° C. on Potato Dextrose and 30° C. on Malt Extract in order to ensure some variation in the ratio of asci (ascospores) to conidiospores. […]
(§7) One sample remained un-inoculated and served as a negative control. […] These samples served as the positive controls in this test. […]
(§8) After inoculation with spores from various mold, samples were incubated at 25-27° C. for a period of 16 weeks before.
(§9) As outlined previously, two separate aliquots of beverage were formulated, one containing Pimaricin in complex with g-cyclodextrin and one without. Both aliquots contained 30 ppm Cinnamic acid.

[8] = test system: Neosartorya fischeri ATCC 96468; experiment: 16 week mold spore challenge MIC in beverage; assay type: cell-based; details: Aspergillus fischeri, ATCC96468, pH 3.4; read-out: 16 week incubation MIC (ppm)
Excerpt: as §2, §3, §4, §5, §6, §7, §8, §9

[9] = test system: Talaromyces flavus ATCC 96463; experiment: 16 week mold spore challenge MIC in beverage; assay type: cell-based; details: ATCC96463, pH 3.4, read-out: 16 week incubation MIC (ppm)
Excerpt: as §2, §3, §4, §5, §6, §7, §8, §9

[10] = test system: Talaromyces flavus var. flavus ATCC 10512; experiment: 16 week mold spore challenge MIC in beverage; assay type: cell-based; details: ATCC10512, pH 3.4, read-out: 16 week incubation MIC (ppm)
Excerpt: as §2, §3, §4, §5, §6, §7, §8, §9

[11] = 25° C., pH approximately 6.4; cited from earlier work

SMILES	concentration required to stabilize beverage for 16 weeks against vegetative yeast, mold and bacteria (bio-indicator mold [1])	solubility (physchem; 4 °C, pH 3.4, aqueous buffer, thermodynamic from solid) [µg/mL]	solubility at 24 h (physchem; 25 °C, pH 3.4, aqueous buffer, thermodynamic from solid) [µg/mL]	solubility limit in high acid beverage (physchem; pH 3.4) [ppm]	MIC [2] [µg/mL]	MIC [3] [µg/mL]	MIC [4] [µg/mL]	pKa of carboxylic acid group [5]	mold able to grow at highest concentration in solution (bio-indicator mold [6]; 20.0 ppm un-complexed Pimaricin, apple juice beverage pH 3.4) [%]	minimum initial stand alone concentration needed to preserve product for 16 weeks (bio-indicator mold [6]; stand alone) [mg pimaricin per liter]	MIC [7] [µg/mL]	MIC [8] [µg/mL]	MIC [9] [µg/mL]	MIC [10] [µg/mL]	solubility in pure water [11] [µg/mL]
COC(=O)OC(=O)OC [DMDC, Dimethyl dicarbonate]	at least 250 mg/liter														
CC1O[C@@H](O[C@H]2/C=C/C=C/C=C/C=C/C[C@@H](C)OC(=O)/C=C/[C@H]3O[C@@H]3C[C@H](O)C[C@]3(O)C[C@H](O)[C@@H](C(=O)O)[C@H](C2)O3)C(O)C(N)[C@@H]1O (stereo partly drawn) [Pimaricin]		10 (≈ 15 µM)	20 (≈ 30 µM)	~10	5.7 (≈ 8.56 µM)	10.3 (≈ 15.5 µM)	18.4 (≈ 27.6 µM)	~6.5	> 50	400	16.9 (≈ 25.4 µM)	> 20	> 20	> 20	52 (≈ 78.1 µM)
